# Molecular target: T1, indoleamine 2,3-dioxygenase (IDO) (Homo sapiens, UniProt P14902)
# T1 construct: host or cells: HeLa cells stimulated with IFNγ (25 ng/mL)
# Test: HeLa cell-based indoleamine 2,3-dioxygenase (IDO) assay (kynurenine production)
# Settings: HeLa cells, IFNγ 25 ng/mL, 48 hour incubation, absorbance at 480 nm
# Experimental: Assessment of inhibitor activity in HeLa cell-based indoleamine 2,3-dioxygenase (IDO) assay:
# HeLa (ATCC® CCL-2) cells were obtained from the ATCC® and cultured in Dulbecco's Modified Eagle Medium supplemented with 4.5 g/L glucose, […] (#10-013-CV, Corning), 2 mM L-alanyl-L-glutamine dipeptide (#35050-061, Gibco), 100U/mL penicillin, 100 μg/mL streptomycin (#SV30010, HyClone) and 10% fetal bovine serum (#SH30071.03 HyClone). Cells were maintained in a humidified incubator at 37° C. in 5% CO2.
# IDO activity was assessed as a function of kynurenine production as follows: HeLa cells were seeded in a 96-well culture plate at a density of 5,000 cells/well and allowed to equilibrate overnight. After 24 hours, the media was aspirated and replaced with media containing IFNγ (#285-IF/CF, R&D Systems) at a final concentration of 25 ng/mL. A serial dilution of each test compound was added to the cells in a total volume of 200 μL of culture medium. After a further 48 hour incubation, 170 μL of supernatant was transferred from each well to a fresh 96-well plate. 12.1 μL of 6.1N trichloroacetic acid (#T0699, Sigma-Aldrich) was added to each well and mixed, followed by incubation at 65° C. for 20 minutes to hydrolyze N-formylkynurenine, the product of indoleamine 2,3-dioxygenase, to kynurenine. The reaction mixture was then centrifuged for 10 mins at 500×g to sediment the precipitate. 100 μL of the supernatant was transferred from each well to afresh 96-well plate. 100 μl of 2% (w/v) p-dimethylaminobenzaldehyde (#15647-7, Sigma-Aldrich) in acetic acid (#A6283, Sigma-Aldrich) was added to each well mixed and incubated at room temperature for 20 mins. Kynurenine concentrations were determined by measuring absorbance at 480 nm and calibrating against an L-kynurenine (#K8625, Sigma-Aldrich) standard curve using a SPECTRAMAX® M2e microplate reader (Molecular Devices). The percentage activity at each inhibitor concentration was determined and IC50 values assessed using nonlinear regression.
# T1 sequence (P14902 whole entry): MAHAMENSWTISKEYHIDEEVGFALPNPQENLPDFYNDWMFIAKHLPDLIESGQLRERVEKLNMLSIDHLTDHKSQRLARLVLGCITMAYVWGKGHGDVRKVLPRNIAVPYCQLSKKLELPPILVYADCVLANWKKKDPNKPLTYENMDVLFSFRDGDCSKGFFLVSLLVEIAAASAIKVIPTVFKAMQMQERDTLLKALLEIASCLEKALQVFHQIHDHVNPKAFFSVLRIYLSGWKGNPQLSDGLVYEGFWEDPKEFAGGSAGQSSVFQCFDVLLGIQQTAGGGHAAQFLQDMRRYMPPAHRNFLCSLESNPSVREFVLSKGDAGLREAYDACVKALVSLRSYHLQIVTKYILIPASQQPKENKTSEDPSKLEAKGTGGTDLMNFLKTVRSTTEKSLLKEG
row,Structure (SMILES),IC50
1,"CCOCC(c1nc2ccc(Cl)cc2[nH]1)[C@H]1CC[C@@H](c2ccnc(F)c2C)CC1 (mixture of isomers) [Example 25, (±)-6-chloro-2-(2-ethoxy-1-((cis)-4-(2-fluoro-3-methylpyridin-4-yl)cyclohexyl)ethyl)-1H-benzo[d]imidazole]",44.9 nM
2,"C[C@@H](c1nc2c(F)c(F)c(F)c(F)c2[nH]1)[C@H]1CC[C@@H](c2ccnc3ccc(F)cc32)CC1 [Example 43, 6-fluoro-4-((1S,4s)-4-((R)-1-(4,5,6,7-tetrafluoro-1H-benzo[d]imidazol-2-yl)ethyl)cyclohexyl) quinoline]",3.5 nM
3,"C[C@@H](c1nc2c(F)c(F)ccc2[nH]1)[C@H]1CC[C@@H](c2ccnc3ccc(F)cc32)CC1 [Example 41, 4-((1S,4s)-4-((R)-1-(4,5-difluoro-1H-benzo[d]imidazol-2-yl)ethyl)cyclohexyl)-6-fluoroquinoline]",3.4 nM
4,"CCC(c1nc2ncc(Cl)cc2[nH]1)[C@H]1CC[C@H](Oc2ccnc3ccccc23)CC1 (single isomer, unassigned) [Example 20-1]",6 nM
5,"CCC(c1nc2ncc(Cl)cc2[nH]1)[C@H]1CC[C@@H](c2ccnc3ccc(C(F)(F)F)cc32)CC1 (mixture of isomers) [Example 22, (±)-4-((cis)-4-(1-(6-chloro-1H-imidazo[4,5-b]pyridin-2-yl)propyl)cyclohexyl)-6-(trifluoromethyl)quinoline]",3.7 nM
6,"CCC(c1nc2ncc(Cl)cc2[nH]1)[C@H]1CC[C@H](Oc2ccnc3ccccc23)CC1 (mixture of isomers) [Example 20, (±)-4-(((trans)-4-(1-(6-chloro-1H-imidazo[4,5-b]pyridin-2-yl)-3-propyl)cyclohexyl)oxy)quinoline]",5.8 nM
7,"C[C@@H](c1nc2cc(C(F)(F)F)cc(Cl)c2[nH]1)[C@H]1CC[C@@H](c2ccnc3ccc(F)cc32)CC1 [Example 46, 4-((1S,4s)-4-((R)-1-(7-chloro-5-(trifluoromethyl)-1H-benzo[d]imidazol-2-yl)ethyl)cyclohexyl)-6-fluoroquinoline]",12.2 nM
8,"Cc1ccc2nc([C@H](C)[C@H]3CC[C@@H](c4ccnc5ccc(F)cc54)CC3)cn2n1 [Example 30, 6-fluoro-4-((cis)-4-((R)-1-(6-methylimidazo[1,2-b]pyridazin-2-yl)ethyl)cyclohexyl)quinoline]",96.6 nM
9,"C[C@@H](c1nnc2ccccn12)[C@H]1CC[C@@H](c2ccnc3ccc(F)cc32)CC1 [Example 26, 4-((cis)-4-((R)-1-([1,2,4]triazolo[4,3-a]pyridin-3-yl)ethyl)cyclohexyl)-6-fluoroquinoline]",459 nM
10,"C[C@@H](c1nc2cc(OC(F)(F)F)ccc2[nH]1)[C@H]1CC[C@@H](c2ccnc3ccc(F)cc32)CC1 [Example 48, 6-fluoro-4-((1S,4s)-4-((R)-1-(5-(trifluoromethoxy)-1H-benzo[d]imidazol-2-yl)ethyl)cyclohexyl) quinoline]",10.7 nM
11,"CCC(c1nc2ncc(Cl)cc2[nH]1)[C@H]1CC[C@@H](c2ccnc(F)c2C)CC1 (mixture of isomers) [Example 24, (±)-6-chloro-2-(1-((cis)-4-(2-fluoro-3-methylpyridin-4-yl)cyclohexyl)-3-propyl)-1H-imidazo[4,5-b]pyridine]",7.5 nM
12,"C[C@H]([C@H]1CC[C@@H](c2ccnc3ccc(F)cc32)CC1)n1cnc2ccccc2c1=O [Example 28, 3-((R)-1-((cis)-4-(6-fluoroquinolin-4-yl)cyclohexyl)ethyl)quinazolin-4(3H)-one]",834 nM
13,"C[C@@H](c1nc2cc(C(F)(F)F)cc(C(F)(F)F)c2[nH]1)[C@H]1CC[C@@H](c2ccnc3ccc(F)cc32)CC1 [Example 47, 4-((1S,4s)-4-((R)-1-(5,7-bis(trifluoromethyl)-1H-benzo[d]imidazol-2-yl)ethyl)cyclohexyl)-6-fluoroquinolme]",45.6 nM
14,"C[C@@H](c1nc2cc(C#N)ccc2[nH]1)[C@H]1CC[C@@H](c2ccnc3ccc(F)cc32)CC1 [Example 49, 2-((R)-1-((1s,4S)-4-(6-fluoroquinolin-4-yl)cyclohexyl)ethyl)-1H-benzo[d]imidazole-5-carbonitrile]",13.4 nM
15,"C[C@@H](c1nc2cc(Cl)c(Cl)cc2[nH]1)[C@H]1CC[C@@H](c2ccnc3ccc(F)cc32)CC1 [Example 44, 4-((1S,4s)-4-((R)-1-(5,6-dichloro-1H-benzo[d]imidazol-2-yl)ethyl)cyclohexyl)-6-fluoroquinoline]",5.5 nM
16,"C[C@@H](c1ncc2ccccn12)[C@H]1CC[C@@H](c2ccnc3ccc(F)cc32)CC1 [Example 27, 6-fluoro-4-((cis)-4-((R)-1-(imidazo[1,5-a]pyridin-3-yl)ethyl)cyclohexyl)quinoline]",836 nM
17,"COC(=O)c1ccc2[nH]c([C@H](C)[C@H]3CC[C@@H](c4ccnc5ccc(F)cc54)CC3)nc2c1 [Example 50, methyl 2-((R)-1-((1s,4S)-4-(6-fluoroquinolin-4-yl)cyclohexyl)ethyl)-1H-benzo[d]imidazole-5-carboxylate]",2.1 nM
18,"COCC(c1nc2ccc(Cl)cc2[nH]1)[C@H]1CC[C@@H](c2ccnc3ccc(C(F)(F)F)cc32)CC1 (mixture of isomers) [Example 18, (±)-4-((cis)-4-(1-(6-chloro-1H-benzo[d]imidazol-2-yl)-2-methoxyethyl)cyclohexyl)-6-(trifluoromethyl)quinoline]",12.1 nM
19,"Fc1ccc2nccc(C3CCC(C(CC(F)(F)F)c4nc5ccc(Cl)cc5[nH]4)CC3)c2c1 (racemic) [Example 33, (±)-Cis and trans-4-(4-(1-(6-chloro-1H-benzo[d]imidazol-2-yl)-3,3,3-trifluoropropyl)cyclohexyl)-6-fluoroquinoline]",7.5 nM
20,C[C@@H](c1nc2cc(Cl)c(F)cc2[nH]1)[C@H]1CC[C@@H](c2ccnc3ccc(F)cc32)CC1 [Example 42],3.7 nM

# The next lines start with the values.
row,IC50,Structure (SMILES)
1,10.2 nM,"CCOCC(c1nc2ccc(Cl)cc2[nH]1)[C@H]1CC[C@@H](c2ccnc(F)c2C)CC1 (single isomer, unassigned) [Example 25-1, 6-chloro-2-(2-ethoxy-1-((cis)-4-(2-fluoro-3-methylpyridin-4-yl)cyclohexyl)ethyl)-1H-benzo[d]imidazole]"
2,2 nM,"CC[C@H](c1nc2ncc(Cl)cc2[nH]1)[C@H]1CC[C@@H](c2ccnc3ccc(F)cc32)CC1 (single isomer, unassigned) [Example 21-1, 4-(4-(1-(6-chloro-1H-imidazo[4,5-b]pyridin-2-yl)propyl)cyclohexyl)-6-fluoroquinoline]"
3,1000 nM,CC(c1nc2ccc(Cl)cc2[nH]1)C1CCC(c2ccnc3ncccc23)CC1 (centres unmarked) [Example 35-1]
4,22.9 nM,"CCOCC(c1nc2ccc(Cl)cc2[nH]1)[C@H]1CC[C@@H](c2ccnc(F)c2C)CC1 (single isomer, unassigned) [Example 25-2, 6-chloro-2-(2-ethoxy-1-((cis)-4-(2-fluoro-3-methylpyridin-4-yl)cyclohexyl)ethyl)-1H-benzo[d]imidazole]"
5,75.4 nM,"C[C@H](c1nc2ccc(Cl)cc2[nH]1)[C@H]1CC[C@@H](c2ccnc(C(F)(F)F)c2)CC1 (single isomer, unassigned) [Example 39-2, 6-chloro-2-(1-(4-(2-(trifluoromethyl)pyridin-4-yl)cyclohexyl)ethyl)-1H-benzo[d]imidazole]"
6,2.4 nM,"CCC(c1nc2ncc(Cl)cc2[nH]1)[C@H]1CC[C@@H](c2ccnc3ccc(C(F)(F)F)cc32)CC1 (single isomer, unassigned) [Example 22-1, 4-((cis)-4-(1-(6-chloro-1H-imidazo[4,5-b]pyridin-2-yl)propyl)cyclohexyl)-6-(trifluoromethyl)quinoline]"
7,2.7 nM,"CCC(c1nc2ncc(Cl)cc2[nH]1)[C@H]1CC[C@@H](c2ccnc(F)c2C)CC1 (single isomer, unassigned) [Example 24-2, 6-chloro-2-(1-((cis)-4-(2-fluoro-3-methylpyridin-4-yl)cyclohexyl)-3-propyl)-1H-imidazo[4,5-b]pyridine]"
8,3.2 nM,"CCC(c1nc2ccc(Cl)cc2[nH]1)[C@H]1CC[C@@H](c2ccnc(F)c2C)CC1 (single isomer, unassigned) [Example 23-2, 6-chloro-2-(1-((cis)-4-(2-fluoro-3-methylpyridin-4-yl)cyclohexyl)-3-propyl)-1H-benzo[d]imidazole]"
9,170 nM,"C[C@H](c1nc2ccc(Cl)cc2[nH]1)[C@H]1CC[C@@H](c2ccnc(C(F)(F)F)c2)CC1 (single isomer, unassigned) [Example 39-1, 6-chloro-2-(1-(4-(2-(trifluoromethyl)pyridin-4-yl)cyclohexyl)ethyl)-1H-benzo[d]imidazole]"
